{"source": "patent US20250215014A1", "about": "“KINASE INHIBITORS, PREPARATION METHODS AND USES THEREOF” (InventisBio Co., Ltd., priority 2022, published 2025)", "key": {"PBMC": {"tested_on": "PBMC", "experiment": "Human PBMC IL-2 Assay", "assay_type": "cell-based", "details": "anti-CD3/CD28 antibody, IL-2 level", "procedure": "PBMC (frozen) obtained from health donor were thawed in RPMI-1640 medium with 10% o FBS, incubated for 4 h at 37° C. In a 96-well plate, 200,000 PBMC cells in 160 uL were added to each assay well. Ten microliter compound solution (10 uM to 0.6 nM, 8 points with 4-fold dilution) were added to cells in each well and incubated for 60 minutes at 37° C. Then 30 uL anti-CD3/CD28 antibody (Catalog #10991, Stemcell) were added to cells and incubated overnight at 37° C. After the incubation, 16 uL supernatants were transferred into a new 384-well white assay plate for cytokine analysis. IL-2 level was quantified using Human IL-2 kit (Catalog #62HIL02PEG, Cisbio) as described in the manufacturer manual.\nActivation at […] activity (EC50) was calculated with the equation: […]\n(§1) X is log of compound concentration, Y is the IL-2 concentration, increasing as X increases."}, "DGKa": {"target": "DGKa (Homo sapiens (Human), UniProt P23743)", "sequence (P23743 whole entry)": "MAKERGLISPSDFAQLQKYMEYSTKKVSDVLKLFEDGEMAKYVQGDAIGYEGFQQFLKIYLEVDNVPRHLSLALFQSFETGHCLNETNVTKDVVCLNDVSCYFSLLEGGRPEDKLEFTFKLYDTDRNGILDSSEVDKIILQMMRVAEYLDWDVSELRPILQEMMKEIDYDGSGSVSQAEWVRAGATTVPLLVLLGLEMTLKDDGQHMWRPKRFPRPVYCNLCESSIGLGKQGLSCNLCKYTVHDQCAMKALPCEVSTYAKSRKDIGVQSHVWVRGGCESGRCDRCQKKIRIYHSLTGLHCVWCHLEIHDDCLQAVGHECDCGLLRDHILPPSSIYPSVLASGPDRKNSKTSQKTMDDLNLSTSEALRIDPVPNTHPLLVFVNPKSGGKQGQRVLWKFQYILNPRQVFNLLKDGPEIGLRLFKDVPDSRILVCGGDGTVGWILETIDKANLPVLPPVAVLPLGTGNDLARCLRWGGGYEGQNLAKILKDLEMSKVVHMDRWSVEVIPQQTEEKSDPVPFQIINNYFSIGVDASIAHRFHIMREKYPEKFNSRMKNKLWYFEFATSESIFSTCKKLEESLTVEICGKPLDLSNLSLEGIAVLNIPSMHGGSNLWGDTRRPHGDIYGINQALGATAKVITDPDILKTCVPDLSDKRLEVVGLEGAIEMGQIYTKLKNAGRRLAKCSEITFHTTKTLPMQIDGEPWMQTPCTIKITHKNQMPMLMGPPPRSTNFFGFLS", "experiment": "DGK ADP-Glo Kinase Assay (DGKa)", "assay_type": "biochemical", "details": "10 nM DGKa, 15 uM ATP", "procedure": "(§2) Luminescence was recorded using an Tecan SPARK microplate reader."}, "DGKz": {"target": "DGKz (Homo sapiens (Human), UniProt Q13574)", "sequence (Q13574 whole entry)": "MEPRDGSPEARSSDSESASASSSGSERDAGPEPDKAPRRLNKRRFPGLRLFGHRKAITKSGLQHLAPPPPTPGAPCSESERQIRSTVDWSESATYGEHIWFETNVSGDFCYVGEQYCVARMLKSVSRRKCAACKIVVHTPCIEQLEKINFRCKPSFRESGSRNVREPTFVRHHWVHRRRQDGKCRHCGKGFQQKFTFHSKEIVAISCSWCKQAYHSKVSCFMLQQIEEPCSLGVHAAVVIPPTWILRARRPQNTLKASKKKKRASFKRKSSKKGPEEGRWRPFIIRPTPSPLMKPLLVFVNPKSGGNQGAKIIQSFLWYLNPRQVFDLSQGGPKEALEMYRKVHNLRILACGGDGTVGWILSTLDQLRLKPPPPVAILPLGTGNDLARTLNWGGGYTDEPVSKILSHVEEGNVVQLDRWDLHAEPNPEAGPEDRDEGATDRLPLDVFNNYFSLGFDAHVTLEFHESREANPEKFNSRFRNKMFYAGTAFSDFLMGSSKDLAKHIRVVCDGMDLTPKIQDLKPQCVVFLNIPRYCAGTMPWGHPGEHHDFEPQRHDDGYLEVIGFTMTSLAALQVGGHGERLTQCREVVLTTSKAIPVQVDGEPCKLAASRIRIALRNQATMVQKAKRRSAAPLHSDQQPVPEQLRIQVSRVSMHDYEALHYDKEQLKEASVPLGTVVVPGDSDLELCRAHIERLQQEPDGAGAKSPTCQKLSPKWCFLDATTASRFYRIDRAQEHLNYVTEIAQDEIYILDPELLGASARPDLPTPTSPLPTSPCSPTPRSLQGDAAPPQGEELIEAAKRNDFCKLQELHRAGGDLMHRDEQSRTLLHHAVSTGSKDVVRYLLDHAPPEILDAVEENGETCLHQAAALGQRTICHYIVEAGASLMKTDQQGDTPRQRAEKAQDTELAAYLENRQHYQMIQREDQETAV", "experiment": "DGK ADP-Glo Kinase Assay (DGKz)", "assay_type": "biochemical", "details": "5 nM DGKz, 15 uM ATP", "procedure": "as §2"}, "Jurkat cells": {"tested_on": "Jurkat cells", "experiment": "Jurkat IL-2 Assay", "assay_type": "cell-based", "details": "Homo sapiens, anti-CD3/CD28 antibody, IL-2 level", "procedure": "Jurkat cells (ATCC) were cultured in RPMI-1640 medium supplemented with 10% FBS. In a 96-well plate, 250,000 cells in 130 uL were added to each assay well. Ten microliter compound solution (5 uM to 2.3 nM, 8 points with 3-fold dilution) were added to cells in each well and incubated for 60 minutes at 37° C. Then 10 uL anti-CD3/CD28 antibody (Catalog #10991, Stemcell) were added and incubated overnight at 37° C. After the incubation, 16 uL supernatants were transferred into a new 384-well white assay plate for cytokine analysis. IL-2 was quantified using Human IL-2 kit (Catalog #62HIL02PEG, Cisbio) as described in the manufacturer manual.\nas §1"}}, "data": [{"smiles": "Cc1ccc2oc(C3(C)CCN(c4c(C#N)c(=O)n(C)c5ccc(C#N)nc45)CC3)nc2c1", "note": "[Compound 7]", "values": [{"measurement": "EC50", "setting": "PBMC", "value": "< 500", "unit": "nM"}]}, {"smiles": "CC[C@H]1C[C@@H](Oc2ccc(OC(F)(F)F)cc2)CCN1c1nc(=O)n(C)c2ccc(C#N)nc12", "note": "[Compound 17]", "values": [{"measurement": "EC50", "setting": "PBMC", "value": "< 500", "unit": "nM"}, {"measurement": "IC50", "setting": "DGKa", "value": "< 100", "unit": "nM"}, {"measurement": "IC50", "setting": "DGKz", "value": "100 to 1000", "unit": "nM"}]}, {"smiles": "Cn1c(=O)nc(N2CCC(Oc3ccc(OC(F)(F)F)cc3)CC2)c2c1ccc1nncn12", "note": "[Compound 21]", "values": [{"measurement": "EC50", "setting": "Jurkat cells", "value": "> 1000", "unit": "nM"}]}, {"smiles": "Cn1c(=O)c(C(N)=O)c(N2CCC3(CCN(c4ccc(OC(F)(F)F)cc4)C3)CC2)c2nc(C#N)ccc21", "note": "[Compound 6]", "values": [{"measurement": "EC50", "setting": "PBMC", "value": "> 1000", "unit": "nM"}, {"measurement": "IC50", "setting": "DGKa", "value": "100 to 1000", "unit": "nM"}, {"measurement": "IC50", "setting": "DGKz", "value": "100 to 1000", "unit": "nM"}]}, {"smiles": "CC[C@H]1CN([C@@H]2CCCCc3cc(C(F)(F)F)ccc32)[C@H](CC)CN1c1nc(=O)n(C)c2ccc(C#N)nc12", "note": "[Compound 45]", "values": [{"measurement": "EC50", "setting": "Jurkat cells", "value": "500 to 1000", "unit": "nM"}, {"measurement": "IC50", "setting": "DGKa", "value": "100 to 1000", "unit": "nM"}, {"measurement": "IC50", "setting": "DGKz", "value": "< 100", "unit": "nM"}]}, {"smiles": "Cn1c(=O)nc(N2CCC(Oc3ccc(OC(F)(F)F)cc3)CC2)c2nc(C#N)ccc21", "note": "[Compound 5]", "values": [{"measurement": "EC50", "setting": "PBMC", "value": "500 to 1000", "unit": "nM"}, {"measurement": "IC50", "setting": "DGKa", "value": "100 to 1000", "unit": "nM"}, {"measurement": "IC50", "setting": "DGKz", "value": "100 to 1000", "unit": "nM"}]}, {"smiles": "C[C@H]1CC2(CCN1c1nc(=O)n(C)c3ccc(C#N)nc13)CC(c1ccc(OC(F)(F)F)cc1)=NO2", "note": "(stereo partly shown) [Compound 50]", "values": [{"measurement": "EC50", "setting": "Jurkat cells", "value": "< 500", "unit": "nM"}]}, {"smiles": "CC[C@@H]1CN(c2nc(=O)n(C)c3ccc(C#N)nc23)[C@@H](C)CN1[C@@H](CC)c1ccc(S(F)(F)(F)(F)F)cc1", "note": "(stereo in doubt) [Compound 60]", "values": [{"measurement": "IC50", "setting": "DGKa", "value": "< 100", "unit": "nM"}, {"measurement": "IC50", "setting": "DGKz", "value": "< 100", "unit": "nM"}]}, {"smiles": "CCC(c1ccc(C23CC(C2)C3)nc1)N1C[C@H](CC)N(c2nc3nncn3c3ccc(C#N)nc23)C[C@H]1CC", "note": "(stereo partly shown) [Compound 104]", "values": [{"measurement": "IC50", "setting": "DGKa", "value": "< 100", "unit": "nM"}, {"measurement": "IC50", "setting": "DGKz", "value": "< 100", "unit": "nM"}]}, {"smiles": "CC[C@@H]1C[C@H](Oc2ccc(OC(F)(F)F)cc2)CCN1c1nc(=O)n(C)c2ccc(C#N)nc12", "note": "[Compound 16]", "values": [{"measurement": "IC50", "setting": "DGKa", "value": "100 to 1000", "unit": "nM"}, {"measurement": "IC50", "setting": "DGKz", "value": "< 100", "unit": "nM"}]}, {"smiles": "CC[C@@H]1CN(c2nc3nncn3c3ccc(C#N)nc23)[C@@H](CC)CN1C(=O)c1ccc(C(F)(F)F)cc1", "note": "[Compound 84]", "values": [{"measurement": "IC50", "setting": "DGKa", "value": "< 100", "unit": "nM"}, {"measurement": "IC50", "setting": "DGKz", "value": "> 1000", "unit": "nM"}]}, {"smiles": "CC[C@H]1CN([C@H](CC)c2ccc(C(F)(F)F)cc2)[C@H](CC)CN1c1nc2nncn2c2ccc(C#N)nc12", "note": "(single isomer, unassigned) [Compound 110]", "values": [{"measurement": "IC50", "setting": "DGKa", "value": "< 100", "unit": "nM"}, {"measurement": "IC50", "setting": "DGKz", "value": "100 to 1000", "unit": "nM"}]}, {"smiles": "Cn1c(=O)nc(N2CCC3(CC2)CC(c2ccccc2C(F)(F)F)=NO3)c2nc(C#N)ccc21", "note": "[Compound 48]", "values": [{"measurement": "EC50", "setting": "PBMC", "value": "> 1000", "unit": "nM"}]}, {"smiles": "CC[C@@H]1CN(c2nc3nncn3c3ccc(C#N)nc23)[C@@H](C)CN1[C@H](CC)c1ccc(S(F)(F)(F)(F)F)cc1", "note": "(stereo in doubt) [Compound 90]", "values": [{"measurement": "IC50", "setting": "DGKa", "value": "< 100", "unit": "nM"}, {"measurement": "IC50", "setting": "DGKz", "value": "100 to 1000", "unit": "nM"}]}, {"smiles": "CC[C@H]1C[C@@H](c2nc3cc(C)ccc3o2)CCN1c1nc(=O)n(C)c2cc(O[C@H]3CCOC3)c(Cl)cc12", "note": "[Compound 93]", "values": [{"measurement": "IC50", "setting": "DGKa", "value": "< 100", "unit": "nM"}, {"measurement": "IC50", "setting": "DGKz", "value": "100 to 1000", "unit": "nM"}]}, {"smiles": "CC[C@@H]1C[C@@]2(CCN1c1nc(=O)n(C)c3ccc(C#N)nc13)CC(c1ccc(OC(F)(F)F)cc1)=NO2", "note": "(stereo in doubt) [Compound 75]", "values": [{"measurement": "IC50", "setting": "DGKa", "value": "100 to 1000", "unit": "nM"}, {"measurement": "IC50", "setting": "DGKz", "value": "100 to 1000", "unit": "nM"}]}, {"smiles": "CC[C@H]1CN(C(CO)c2ccc(S(F)(F)(F)(F)F)cc2)[C@H](CC)CN1c1nc(=O)n(C)c2ccc(C#N)nc12", "note": "(stereo partly shown) [Compound 77]", "values": [{"measurement": "IC50", "setting": "DGKa", "value": "< 100", "unit": "nM"}, {"measurement": "IC50", "setting": "DGKz", "value": "< 100", "unit": "nM"}]}, {"smiles": "Cn1c(=O)nc(N2CCC3(CCN(c4ccc(OC(F)(F)F)cc4)C3)CC2)c2nc(C#N)ccc21", "note": "[Compound 8]", "values": [{"measurement": "IC50", "setting": "DGKa", "value": "100 to 1000", "unit": "nM"}, {"measurement": "IC50", "setting": "DGKz", "value": "100 to 1000", "unit": "nM"}]}, {"smiles": "CC[C@@H]1C[C@H](c2nc3cc(C)ccc3o2)CCN1c1nc(=O)n(C)c2cc(O[C@H]3CCOC3)c(Cl)cc12", "note": "[Compound 91]", "values": [{"measurement": "IC50", "setting": "DGKa", "value": "< 100", "unit": "nM"}, {"measurement": "IC50", "setting": "DGKz", "value": "> 1000", "unit": "nM"}]}, {"smiles": "CC[C@H]1CN([C@H](CC)c2nc(C3CC3)no2)[C@H](CC)CN1c1nc2nncn2c2ccc(C#N)nc12", "note": "[Compound 120]", "values": [{"measurement": "IC50", "setting": "DGKa", "value": "< 100", "unit": "nM"}, {"measurement": "IC50", "setting": "DGKz", "value": "100 to 1000", "unit": "nM"}]}, {"smiles": "CC[C@H]1CN([C@@H](CC)c2ccc(OC)cc2F)[C@H](CC)CN1c1nc2nncn2c2ccc(C#N)nc12", "note": "(stereo in doubt) [Compound 115]", "values": [{"measurement": "IC50", "setting": "DGKa", "value": "< 100", "unit": "nM"}, {"measurement": "IC50", "setting": "DGKz", "value": "< 100", "unit": "nM"}]}, {"smiles": "N#Cc1cc2c3c(n1)c(N1CCC4(CC1)CC(c1ccc(OC(F)(F)F)cc1)=NO4)nc(=O)n3CCO2", "note": "[Compound 59]", "values": [{"measurement": "IC50", "setting": "DGKa", "value": "< 100", "unit": "nM"}, {"measurement": "IC50", "setting": "DGKz", "value": "100 to 1000", "unit": "nM"}]}, {"smiles": "CC[C@H]1CN([C@H]2CCCCc3cc(C(F)(F)F)ccc32)[C@H](CC)CN1c1nc(=O)n(C)c2ccc(C#N)nc12", "note": "[Compound 44]", "values": [{"measurement": "IC50", "setting": "DGKa", "value": "< 100", "unit": "nM"}, {"measurement": "IC50", "setting": "DGKz", "value": "100 to 1000", "unit": "nM"}]}, {"smiles": "CN(c1cccc(C#CC2CC2)c1)c1nc(=O)n(C)c2ccc(C#N)nc12", "note": "[Compound 46]", "values": [{"measurement": "IC50", "setting": "DGKa", "value": "< 100", "unit": "nM"}, {"measurement": "IC50", "setting": "DGKz", "value": "100 to 1000", "unit": "nM"}]}, {"smiles": "Cn1c(=O)c(C(N)=O)c(N2CCC3(CN(c4ccc(OC(F)(F)F)cc4)C3)C2)c2nc(C#N)ccc21", "note": "[Compound 15]", "values": [{"measurement": "IC50", "setting": "DGKa", "value": "< 100", "unit": "nM"}, {"measurement": "IC50", "setting": "DGKz", "value": "> 1000", "unit": "nM"}]}, {"smiles": "CC[C@@H]1C[C@@H](Oc2ccc(OC(F)(F)F)cc2)CCN1c1nc(=O)n(C)c2ccc(C#N)nc12", "note": "(stereo in doubt) [Compound 19]", "values": [{"measurement": "EC50", "setting": "PBMC", "value": "500 to 1000", "unit": "nM"}, {"measurement": "IC50", "setting": "DGKa", "value": "> 1000", "unit": "nM"}, {"measurement": "IC50", "setting": "DGKz", "value": "< 100", "unit": "nM"}]}, {"smiles": "CC[C@H]1CN([C@@H](CC)c2ccc(C(F)(F)F)nc2)[C@H](CC)CN1c1nc2nncn2c2ccc(C#N)nc12", "note": "(stereo in doubt) [Compound 111]", "values": [{"measurement": "IC50", "setting": "DGKa", "value": "< 100", "unit": "nM"}, {"measurement": "IC50", "setting": "DGKz", "value": "< 100", "unit": "nM"}]}]}
